The values that follow come from article PMC9227781, “Inhibitors of O-Acetylserine Sulfhydrylase with a Cyclopropane-Carboxylic Acid Scaffold Are Effective Colistin Adjuvants in Gram Negative Bacteria” (Pharmaceuticals, 2022).

pKd: −log10 of the molar value.

Assay [1] deals with T1, StOASS-A (Salmonella typhimurium, UniProt P0A1E3).
T1 construct: His-tag (with TEV site) (cleaved yes); made in house; host or cells: E. coli Rosetta (DE3)
Set-up: method as in PMID 26894308. The settings on record: read-out: KD toward isoform A from S. Typhimurium; cited from earlier work.

Assay [2] addresses T2, StOASS-B (Salmonella typhimurium, UniProt P29848).
T2 construct: His-tag (with TEV site) (cleaved yes); made in house; host or cells: E. coli Rosetta (DE3)
T2 sequence (P29848 1-303): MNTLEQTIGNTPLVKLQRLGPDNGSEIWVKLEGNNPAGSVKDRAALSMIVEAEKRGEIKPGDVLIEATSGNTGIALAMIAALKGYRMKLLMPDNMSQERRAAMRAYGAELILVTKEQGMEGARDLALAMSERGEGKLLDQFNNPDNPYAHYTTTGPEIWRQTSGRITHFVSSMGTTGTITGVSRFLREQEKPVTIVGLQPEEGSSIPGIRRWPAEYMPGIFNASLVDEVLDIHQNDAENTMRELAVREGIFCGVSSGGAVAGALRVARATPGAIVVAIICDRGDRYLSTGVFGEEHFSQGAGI
Set-up: method as in PMID 26894308. The settings on record: read-out: KD toward isoform B from S. Typhimurium; cited from earlier work.

In assay [3] the test system is all bacterial species considered in that study. Set-up: method as in PMID 33513010. The settings on record: cited from earlier work.
The subject of assay [4] is E. coli ATCC 25922. Description: MIC by broth microdilution, E. coli. It counts as cell-based, Escherichia coli. Conditions: colistin alone, MHB. The method, then:
(§1) MIC values were evaluated following CLSI guidelines with some modifications, as referred to in previous work. Twofold dilutions 25.6–0.05 mg/mL of the tested compounds were performed in DMSO in separate 96-well microtiter U-plates (Greiner, Milan, Italy). In a different 96-well microtiter U-plate, for each well of the replicates, 49 µL of broth medium were added. Then, in each well of the plate, one microliter of each compound at variable dilution in DMSO was added. For each test, three independent experiments with three replicates each were performed. Tested reference bacterial strains (E. coli ATCC25922; S. Typhimurium ATCC14028; K. pneumoniae ATCC13883) were brought to the logarithmic phase of growth in MHB medium by incubation at 37 °C for 24 h. After incubation, bacterial suspensions were centrifuged (2000 rpm, 4 °C for 20 min), and then the pellets were resuspended in 100 mM phosphate buffer, pH 7.0, to reach a final bacterial concentration of 10^8 CFU/mL, adjusted by spectrophotometry (OD620nm ranged between 0.08–0.13). The obtained suspensions were further diluted 1:100 in broth medium to reach a bacterial concentration of 10^6 CFU/mL. Fifty µL of the bacterial suspension containing 10^6 CFU/mL were inoculated into each well within 30 min, to obtain a final concentration of 5 × 10^5 CFU/mL in a total volume of 100 µL. The final dilution range tested was 256–0.5 µg/mL. Growth and sterility controls were performed for each strain and for each tested compound. Plates were then incubated for 24 h at 37 °C in a static aerobic atmosphere. After incubation, plates were read by unaided eye with a microtiter reading mirror and then the OD of each well of the plates was measured spectrophotometrically at 620 nm. MIC values were calculated as the arithmetic mean ± standard deviation (SD) of the unaided eye reading and the inhibition of growth for each tested dilution was calculated from the OD values (mean ± SD). A quality control microorganism (E. coli ATCC 25922) was tested periodically to validate the accuracy of the procedure.
(In general: Broth dilution looks for growth in wells or tubes with falling amounts of substance.)

Assay [5] deals with S. Typhimurium DW378. In words: Target engagement: MIC of 12h and colistin in cysK/cysM-inactive mutant strain. The class given is cell-based, Salmonella enterica serovar Typhimurium. The settings on record: colistin alone. The protocol:
In this regard, compound 12h has been selected because of its favorable overall properties. It has been tested at a concentration of 32 μg/mL, in order to ensure complete inactivation of both the OASS isoforms. […] The MIC assays of 12h and colistin alone on the DW378 strain have been performed and they have been compared with those obtained on the WT strain. […] But, on the other hand, the MIC value of colistin was […] lower on the mutant strain than that on the WT, a result that overlapped those achieved with the association of colistin and 12h in WT cells.
MIC values were evaluated following CLSI guidelines with some modifications, as referred to in previous work. Twofold dilutions 25.6–0.05 mg/mL of the tested compounds were performed in DMSO in separate 96-well microtiter U-plates (Greiner, Milan, Italy). In a different 96-well microtiter U-plate, for each well of the replicates, 49 µL of broth medium were added. Then, in each well of the plate, one microliter of each compound at variable dilution in DMSO was added. For each test, three independent experiments with three replicates each were performed.
Antimicrobial activity of associations between the different compounds and colistin (Sigma-Aldrich, St. Louis, MO, USA, lot n. 049M-4836 V) was tested with checkerboard assay with minor modifications, as mentioned in the previous work. For each assay, three experiments with three replicates each were assessed. For each compound tested concentration, 96-wells microtiter U-plates were prepared with twofold serial dilutions of colistin in MHB starting from the MIC value (µg/mL) for ten consecutive dilutions in 50 µL of broth. In each well of the same replicate, 1 µL of each compound in DMSO was added at a fixed concentration, 100 times higher than the final desired concentration (3.2; 1.6; 0.8 mg/mL). Subsequently, 49 µL of the bacterial suspension at a concentration of 10^6 CFU/mL, adjusted spectrophotometrically as reported above, was added to each well, reaching the final bacterial concentration of 5 × 10^5 CFU/mL. Growth and sterility controls were performed for each experiment and for each replicate. Finally, the plates were incubated at 37 °C in aerobic atmosphere for 24 h. After incubation, plates were read by unaided eye with a microtiter reading mirror and then the OD of each well of the plates was measured spectrophotometrically at 620 nm. MIC values were calculated as the arithmetic mean ± SD of the unaided eye reading and the inhibition of growth for each tested dilution was calculated from the OD values (mean ± SD).
* This strain is defective for the expression of cysK and cysM genes, encoding for isozymes OASS-A and B. The genotypes of this strain are trpC109, cysK1772, and cysM1770. […]

For assay [6], the system named is S. Typhimurium ATCC14028. In words: MIC by broth microdilution, S. Typhimurium. The settings on record: colistin alone, MHB, ATCC14028 (wild type). It counts as cell-based, Salmonella enterica serovar Typhimurium. The method, then:
as §1

In assay [7] the test system is K. pneumoniae ATCC13883. Description: MIC by broth microdilution, K. pneumoniae. The class given is cell-based, Klebsiella pneumoniae. The settings on record: colistin alone, MHB. The protocol:
as §1

T1 sequence (P0A1E3 whole entry): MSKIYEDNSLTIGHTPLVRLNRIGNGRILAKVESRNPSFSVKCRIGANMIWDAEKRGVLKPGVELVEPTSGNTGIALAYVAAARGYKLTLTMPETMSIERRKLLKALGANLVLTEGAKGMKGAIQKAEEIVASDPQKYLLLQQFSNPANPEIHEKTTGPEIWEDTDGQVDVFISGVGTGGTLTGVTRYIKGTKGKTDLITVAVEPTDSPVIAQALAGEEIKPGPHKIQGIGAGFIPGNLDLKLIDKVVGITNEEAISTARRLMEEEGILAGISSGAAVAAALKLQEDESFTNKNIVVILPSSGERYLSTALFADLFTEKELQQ

One may read the pKd as the Kd on a negative log10 scale, so that one unit is a factor of ten. On to `Cc1ccc(C[C@@]2(C(=O)O)C[C@H]2c2ccccc2)cc1` [UPAR415], for which the pKd in assay [1] was 7.55; in assay [2], 6.31. In assay [3], the “effect as colistin adjuvant” value was “synergistic or additive effect”.

For the molecule Colistin [reference compound], the “MIC Colistin E. coli” value in assay [4] was determined as 0.39 ± 0.25 µg/mL. For the same molecule, the “MIC Colistin” value in assay [5] (DW378 mutant strain) came to 0.141 ± 0.09 µg/mL. The “MIC of colistin on mutant strain DW378 relative to WT (fold lower)” value in assay [5] (DW378 versus wild type) was determined as 5 fold. For the same molecule, the “MIC Colistin S. Typhimurium” value in assay [6] was 0.53 ± 0.19 µg/mL. For the same molecule, in assay [7], the “MIC Colistin K. pneumoniae” value came to 4.00 ± 1.73 µg/mL.
